Measured values published in BindingDB's records for doi:10.1021/jm00019a005 (Warner-Lambert, 1995).

Target: Type-2 angiotensin II receptor (Oryctolagus cuniculus)
Experiment: The compound was tested for binding affinity against Angiotensin II receptor, type 2 from rabbit uterus membrane by using [125I]AngII as radioligand

CCCCc1ncc(/C=C2/C(=O)N(CCCC)C(=O)N2CCCC)n1Cc1ccc(C(=O)OC)cc1 [4-{2-Butyl-5-[1,3-dibutyl-2,5-dioxo-imidazolidin-(4Z)-ylidenemethyl]-imidazol-1-ylmethyl}-benzoic acid methyl ester]
IC50: 5.87 µM

CCCCc1ncc(C=C2C(=O)NC(=O)N2CCCC)n1Cc1ccc(-c2ccccc2-c2nnn[nH]2)cc1 [1-Butyl-5-[1-{2-butyl-3-[2'-(1H-tetrazol-5-yl)-biphenyl-4-ylmethyl]-3H-imidazol-4-yl}-meth-(Z)-ylidene]-imidazolidine-2,4-dione]
IC50: 0.789 µM
